The results in this text go back to patent US12195439B1, “C1-substituted isopropylamine fused heterocyclic mescaline derivatives” (Enveric Biosciences Canada Inc., priority 2022, dated 2025).

Test [1] has as its target T1, 5-HT2B receptor (Homo sapiens, UniProt P41595).
T1 construct: host or cells: CHO cells (membrane preparation)
The test can be described thus: Eurofins Cerep competition binding assay at 5-HT2B receptor. The conditions noted are these: 10 μM test ligand, [3H]mesulergine, recombinant receptor from CHO cells; for inhibition at 10 µM: read-out: HT2B, percent of control-specific binding.

The target of test [2] is T2, serotonin transporter (SERT) (Homo sapiens, UniProt P31645).
T2 construct: host or cells: CHO cells (membrane preparation)
T2 sequence (P31645 whole entry): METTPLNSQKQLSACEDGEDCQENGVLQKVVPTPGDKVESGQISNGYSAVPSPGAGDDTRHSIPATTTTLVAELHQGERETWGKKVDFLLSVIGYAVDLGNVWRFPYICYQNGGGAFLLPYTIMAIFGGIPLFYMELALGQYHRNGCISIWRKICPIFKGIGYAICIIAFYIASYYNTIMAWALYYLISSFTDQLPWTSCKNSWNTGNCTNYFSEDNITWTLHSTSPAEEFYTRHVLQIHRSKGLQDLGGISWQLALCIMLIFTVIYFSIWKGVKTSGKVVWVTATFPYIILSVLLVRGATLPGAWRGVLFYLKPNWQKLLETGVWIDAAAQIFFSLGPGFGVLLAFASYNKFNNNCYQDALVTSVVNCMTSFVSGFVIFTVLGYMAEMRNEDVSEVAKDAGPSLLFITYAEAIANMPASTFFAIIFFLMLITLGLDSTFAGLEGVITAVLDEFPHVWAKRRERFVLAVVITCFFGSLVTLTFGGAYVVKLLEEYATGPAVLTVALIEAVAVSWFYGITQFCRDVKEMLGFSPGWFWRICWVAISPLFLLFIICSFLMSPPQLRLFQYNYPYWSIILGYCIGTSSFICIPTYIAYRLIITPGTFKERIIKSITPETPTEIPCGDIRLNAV
The test can be described thus: biochemical. It is filed as binding. Conditions: for inhibition at 10 µM: read-out: SERT, percent of control-specific binding; for SERT, percent of control-specific binding: 10 µM.

For test [3], the target named is T3, 5-HT7 receptor (Homo sapiens, UniProt P34969).
T3 construct: host or cells: HEK-293 cells (membrane preparation)
T3 sequence (P34969 whole entry): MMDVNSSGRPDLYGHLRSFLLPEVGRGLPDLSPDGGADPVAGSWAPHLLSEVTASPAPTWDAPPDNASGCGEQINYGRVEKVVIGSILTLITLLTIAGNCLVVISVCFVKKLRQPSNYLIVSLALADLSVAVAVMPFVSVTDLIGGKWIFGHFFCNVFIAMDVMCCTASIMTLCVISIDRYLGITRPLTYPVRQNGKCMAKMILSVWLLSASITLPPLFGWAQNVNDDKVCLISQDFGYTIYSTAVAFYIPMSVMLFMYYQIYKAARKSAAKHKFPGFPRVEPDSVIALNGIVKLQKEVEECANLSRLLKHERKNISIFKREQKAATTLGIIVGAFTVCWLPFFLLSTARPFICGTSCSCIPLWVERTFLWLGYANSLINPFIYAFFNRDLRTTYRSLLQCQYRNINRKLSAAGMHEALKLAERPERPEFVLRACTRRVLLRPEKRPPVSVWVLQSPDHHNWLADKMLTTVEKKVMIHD
The test can be described thus: Eurofins Cerep competition binding assay at 5-HT7 receptor. The conditions noted are these: 10 μM test ligand, [3H]LSD, recombinant receptor from HEK-293 cells; for inhibition at 10 µM: read-out: HT7, percent of control-specific binding.

The target of test [4] is T4, dopamine transporter (DAT) (Homo sapiens, UniProt Q01959).
T4 construct: host or cells: CHO cells (membrane preparation)
T4 sequence (Q01959 whole entry): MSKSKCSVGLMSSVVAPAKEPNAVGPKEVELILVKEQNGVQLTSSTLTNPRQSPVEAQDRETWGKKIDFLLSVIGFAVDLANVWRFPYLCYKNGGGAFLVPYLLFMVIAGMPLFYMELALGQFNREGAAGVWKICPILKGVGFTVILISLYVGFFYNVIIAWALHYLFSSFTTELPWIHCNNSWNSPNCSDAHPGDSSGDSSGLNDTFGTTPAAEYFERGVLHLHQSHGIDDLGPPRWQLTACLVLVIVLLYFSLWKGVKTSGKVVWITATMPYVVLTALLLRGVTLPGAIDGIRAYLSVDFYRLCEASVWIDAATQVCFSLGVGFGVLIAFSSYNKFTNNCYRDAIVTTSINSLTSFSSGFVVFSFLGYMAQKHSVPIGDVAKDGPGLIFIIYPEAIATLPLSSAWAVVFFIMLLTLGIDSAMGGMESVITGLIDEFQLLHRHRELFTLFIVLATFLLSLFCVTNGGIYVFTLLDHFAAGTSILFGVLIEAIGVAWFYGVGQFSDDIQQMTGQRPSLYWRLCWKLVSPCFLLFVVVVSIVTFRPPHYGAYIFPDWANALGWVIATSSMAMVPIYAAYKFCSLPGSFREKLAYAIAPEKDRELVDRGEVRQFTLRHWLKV
The test can be described thus: Eurofins Cerep competition binding assay at dopamine transporter. The conditions noted are these: for inhibition at 10 µM: read-out: DAT, percent of control-specific binding, 10 μM test ligand, [3H]BTCP, recombinant transporter from CHO cells; for DAT, percent of control-specific binding: 10 μM test ligand, [3H]BTCP, recombinant transporter from CHO cells.

Test [5] deals with T5, 5-HT2A receptor (Homo sapiens, UniProt P28223).
T5 construct: purchased PerkinElmer ES-313-M400UA
T5 sequence (P28223 whole entry): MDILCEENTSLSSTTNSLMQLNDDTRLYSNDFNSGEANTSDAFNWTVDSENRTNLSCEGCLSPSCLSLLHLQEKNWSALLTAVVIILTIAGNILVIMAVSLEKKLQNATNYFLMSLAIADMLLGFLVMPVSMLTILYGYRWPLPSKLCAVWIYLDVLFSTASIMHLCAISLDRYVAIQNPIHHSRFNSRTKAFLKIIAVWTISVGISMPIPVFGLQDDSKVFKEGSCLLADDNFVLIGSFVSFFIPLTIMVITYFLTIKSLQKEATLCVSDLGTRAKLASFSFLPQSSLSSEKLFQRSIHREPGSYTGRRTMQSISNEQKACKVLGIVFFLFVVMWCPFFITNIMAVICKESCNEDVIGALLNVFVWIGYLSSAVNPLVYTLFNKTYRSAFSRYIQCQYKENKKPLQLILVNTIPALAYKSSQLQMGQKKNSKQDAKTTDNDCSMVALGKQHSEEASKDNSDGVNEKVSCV
The test can be described thus: biochemical. The format is binding. Conditions: competition with 1 nM [3H]ketanserin, membranes containing 5-HT2A, SPA.

The target in test [6] is T6, 5-HT2C receptor (Homo sapiens, UniProt P28335).
T6 construct: host or cells: HEK-293 cells (membrane preparation)
T6 sequence (P28335 33-458): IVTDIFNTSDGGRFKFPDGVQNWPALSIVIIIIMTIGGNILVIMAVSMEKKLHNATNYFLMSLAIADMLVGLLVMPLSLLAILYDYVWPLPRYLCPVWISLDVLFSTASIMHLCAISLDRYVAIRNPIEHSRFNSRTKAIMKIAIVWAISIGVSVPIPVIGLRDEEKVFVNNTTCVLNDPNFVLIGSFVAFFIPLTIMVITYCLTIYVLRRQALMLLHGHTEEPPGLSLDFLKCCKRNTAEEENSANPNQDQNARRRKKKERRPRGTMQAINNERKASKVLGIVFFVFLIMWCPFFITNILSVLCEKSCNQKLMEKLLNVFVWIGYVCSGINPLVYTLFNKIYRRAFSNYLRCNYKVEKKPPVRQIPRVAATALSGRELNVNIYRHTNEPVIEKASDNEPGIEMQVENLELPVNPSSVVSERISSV
The test can be described thus: Eurofins Cerep competition binding assay at 5-HT2C receptor. Conditions: 10 μM test ligand, [125I](±)DOI, recombinant receptor from HEK-293 cells; for inhibition at 10 µM: read-out: HT2C, percent of control-specific binding.

Test [7] has as its target T7, MT1 receptor (Homo sapiens, UniProt P48039).
T7 construct: host or cells: CHO cells (membrane preparation)
In words: Eurofins Cerep competition binding assay at MT1 receptor. Conditions: for inhibition at 10 µM: read-out: MT1, percent of control-specific binding, 10 μM test ligand, [125I]2-iodomelatonin, recombinant receptor from CHO cells; for MT1, percent of control-specific binding: 10 μM test ligand, [125I]2-iodomelatonin, recombinant receptor from CHO cells.

The target of test [8] is T8, 5-HT1A receptor (Homo sapiens, UniProt P08908).
T8 construct: purchased Perkin Elmer 6110501400UA
T8 sequence (P08908 1-422): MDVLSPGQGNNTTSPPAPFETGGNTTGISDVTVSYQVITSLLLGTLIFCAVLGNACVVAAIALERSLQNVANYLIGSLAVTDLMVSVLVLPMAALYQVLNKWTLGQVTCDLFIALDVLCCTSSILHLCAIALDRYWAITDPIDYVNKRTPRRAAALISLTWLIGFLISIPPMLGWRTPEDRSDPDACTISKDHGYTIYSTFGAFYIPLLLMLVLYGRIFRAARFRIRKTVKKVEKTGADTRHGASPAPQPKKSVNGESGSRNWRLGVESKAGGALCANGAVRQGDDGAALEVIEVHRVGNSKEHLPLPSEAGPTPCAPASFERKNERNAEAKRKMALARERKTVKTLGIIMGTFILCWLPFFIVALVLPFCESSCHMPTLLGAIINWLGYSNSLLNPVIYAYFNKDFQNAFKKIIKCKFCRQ
The test can be described thus: 5-HT1A receptor radioligand competition assay (SPA). It is filed as binding. Conditions: competition with 0.5 nM [3H]8-hydroxy-DPAT, membranes containing 5-HT1A.

Test [9] addresses T9, alpha2A receptor (Homo sapiens, UniProt P08913).
T9 construct: host or cells: CHO cells (membrane preparation)
T9 sequence (P08913 1-465): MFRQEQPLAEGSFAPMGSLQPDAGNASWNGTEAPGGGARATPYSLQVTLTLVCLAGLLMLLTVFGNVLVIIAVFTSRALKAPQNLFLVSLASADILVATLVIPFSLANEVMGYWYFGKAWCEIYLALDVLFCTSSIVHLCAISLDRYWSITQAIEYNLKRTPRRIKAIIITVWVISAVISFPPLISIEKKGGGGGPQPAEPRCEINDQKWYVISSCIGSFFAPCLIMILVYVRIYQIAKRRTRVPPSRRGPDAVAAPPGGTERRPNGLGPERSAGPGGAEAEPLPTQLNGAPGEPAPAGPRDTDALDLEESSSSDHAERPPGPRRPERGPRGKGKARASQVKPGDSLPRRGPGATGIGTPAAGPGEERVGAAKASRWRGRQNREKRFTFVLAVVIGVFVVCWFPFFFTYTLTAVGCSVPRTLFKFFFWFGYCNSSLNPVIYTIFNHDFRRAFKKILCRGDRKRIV
The test can be described thus: Eurofins Cerep competition binding assay at alpha2A receptor. The conditions noted are these: 10 μM test ligand, [3H]RX 821002, recombinant receptor from CHO cells; for inhibition at 10 µM: read-out: α-2A, percent of control-specific binding.

Test [10] addresses T10, norepinephrine transporter (NET) (Homo sapiens, UniProt P23975).
T10 construct: host or cells: CHO cells (membrane preparation)
The test can be described thus: Eurofins Cerep competition binding assay at norepinephrine transporter. The conditions noted are these: for inhibition at 10 µM: read-out: NET, percent of control-specific binding, 10 μM test ligand, [3H]nisoxetine, recombinant transporter from CHO cells; for NET, percent of control-specific binding: 10 μM test ligand, [3H]nisoxetine, recombinant transporter from CHO cells.

In test [11] the target is T8, 5-HT1A receptor. In words: Eurofins Cerep competition binding assay at 5-HT1A receptor. Conditions: 10 μM test ligand, [3H]8-OH-DPAT, recombinant receptor from HEK-293 cells; for inhibition at 10 µM: read-out: HT1A, percent of control-specific binding.
In test [12] the target is T8, 5-HT1A receptor. The test can be described thus: 5-HT1A receptor functional cellular response (cAMP) assay. The format is cell-based.
Where [13] appears, read: CHO-K1/5-HT1A/Gα15 cells stimulated with 4 μM forskolin, reduction of intracellular cAMP, read-out: 5-HT1A, EC50.

Where two headings read alike, the source gives them in different places.

T7 sequence (P48039 whole entry): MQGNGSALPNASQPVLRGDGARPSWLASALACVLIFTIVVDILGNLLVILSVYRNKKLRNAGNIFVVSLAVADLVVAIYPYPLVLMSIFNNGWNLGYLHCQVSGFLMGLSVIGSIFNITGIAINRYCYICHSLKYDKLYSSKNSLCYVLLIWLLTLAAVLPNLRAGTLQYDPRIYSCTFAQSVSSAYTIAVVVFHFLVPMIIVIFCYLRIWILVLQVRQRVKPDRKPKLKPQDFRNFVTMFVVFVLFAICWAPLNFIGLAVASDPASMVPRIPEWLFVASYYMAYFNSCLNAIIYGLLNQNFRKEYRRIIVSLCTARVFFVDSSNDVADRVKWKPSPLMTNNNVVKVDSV
T10 sequence (P23975 whole entry): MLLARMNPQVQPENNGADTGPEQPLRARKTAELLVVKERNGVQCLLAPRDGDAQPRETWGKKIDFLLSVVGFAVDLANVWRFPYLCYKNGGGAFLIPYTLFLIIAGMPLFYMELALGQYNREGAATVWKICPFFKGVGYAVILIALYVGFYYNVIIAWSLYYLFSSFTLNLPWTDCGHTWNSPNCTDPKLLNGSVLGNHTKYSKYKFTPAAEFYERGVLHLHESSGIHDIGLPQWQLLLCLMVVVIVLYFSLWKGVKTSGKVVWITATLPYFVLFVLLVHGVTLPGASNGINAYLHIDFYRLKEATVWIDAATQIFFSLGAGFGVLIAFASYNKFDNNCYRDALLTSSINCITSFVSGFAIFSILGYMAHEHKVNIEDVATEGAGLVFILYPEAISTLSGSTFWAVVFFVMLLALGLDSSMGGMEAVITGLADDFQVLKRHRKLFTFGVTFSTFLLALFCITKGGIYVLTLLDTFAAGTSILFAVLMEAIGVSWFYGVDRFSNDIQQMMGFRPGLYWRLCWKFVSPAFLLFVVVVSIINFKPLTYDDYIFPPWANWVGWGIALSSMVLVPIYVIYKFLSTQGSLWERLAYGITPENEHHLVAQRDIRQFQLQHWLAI
T1 sequence (P41595 whole entry): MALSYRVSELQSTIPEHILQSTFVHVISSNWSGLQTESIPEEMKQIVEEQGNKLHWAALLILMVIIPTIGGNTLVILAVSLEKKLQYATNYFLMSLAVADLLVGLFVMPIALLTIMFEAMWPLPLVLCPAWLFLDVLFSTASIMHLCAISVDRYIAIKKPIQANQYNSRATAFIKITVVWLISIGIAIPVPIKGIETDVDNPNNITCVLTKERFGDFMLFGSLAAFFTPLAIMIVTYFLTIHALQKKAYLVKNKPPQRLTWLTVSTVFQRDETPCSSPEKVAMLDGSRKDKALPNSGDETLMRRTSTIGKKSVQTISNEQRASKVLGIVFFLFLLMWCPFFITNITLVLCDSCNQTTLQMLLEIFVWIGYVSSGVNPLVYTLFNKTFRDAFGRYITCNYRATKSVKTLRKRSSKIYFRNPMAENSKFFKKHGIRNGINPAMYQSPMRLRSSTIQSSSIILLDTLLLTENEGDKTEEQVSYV

Consider `CC(C(=O)c1ccc2c(c1)OCO2)N1CCCC1` (racemic) [A(I)], for which the inhibition at 10 µM in test [1] is 19%; in [2], 25%; in test [3] it was 3%; in [4], 95%; in test [6], 45%; in [7] it was 5%. The results for the inhibition at 10 µM in [9], in [10] and in [11] were 24%, 59% and 73%, respectively. Moreover, the Ki was found to be 131 µM in test [5] and 2 µM in test [8] (5-HT1A, Ki).

Consider `CC(C(O)c1ccc2c(c1)OCO2)N(C)Cc1ccccc1` (single isomer, unassigned) [B(III) as diast. (iii)], for which the “HT2B, percent of control-specific binding” value (shortened to “HT2B, percent”) in test [1] (10 µM) stood at 3%. For the same molecule, the inhibition at 10 µM in [2] was determined as 58%; in [4], 75%; in test [10] it was 42%. Further, in test [3] (10 µM), the “HT7, percent of control-specific binding” value is recorded as 10%. The Ki in test [5] came to 44 µM; in [8] (5-HT1A, Ki) it was 110 µM. For the same molecule, the “HT2C, percent of control-specific binding” value (from here on “HT2C, percent”) in test [6] (10 µM) amounted to 5%. For the same molecule, in [7] (10 µM), the “MT1, percent of control-specific binding” value came out at 0%. Further, in test [9] (10 µM), the “α-2A, percent of control-specific binding” value (from here on “α-2A, percent”) stood at 7%. Besides, the “HT1A, percent of control-specific binding” value (“HT1A, percent” for short) in test [11] (10 µM) is given as 0%.

`CNC(C)C(F)c1ccc2c(c1)OCO2` (single isomer, unassigned) [D(II) as diast. (vi)]: in [12], the EC50 was over 1000 µM. Also, affinity in test [8] (5-HT1A, Ki) was put at a Ki of 6 µM.

For the molecule `CC(C(F)c1ccc2c(c1)OCO2)N(C)Cc1ccccc1` (single isomer, unassigned) [D(III) as diast. (vii)], the EC50 in test [12] came out at 156 µM. Further, the inhibition at 10 µM in [1] is 29%; in test [2], 35%; in test [3] it was 60%; in test [4] it was 69%; in test [6], 36%; in [7], 23%. Moreover, the values for the inhibition at 10 µM in test [9], in test [10] and in test [11] were 86%, 50% and 36%, respectively. In test [8] (5-HT1A, Ki), the Ki was determined as 11.3 µM.

Consider `COc1cc(CCN)c(OC)cc1Br` [2C-B], for which the EC50 in [12] (setting [13]) worked out at 5.95 µM. For the same molecule, in [1], the “HT2B, percent” value worked out at 99%. For the same molecule, the “SERT, percent of control-specific binding” value (“SERT, percent” for short) in test [2] is on record as 42%. For the same molecule, the “HT7, percent of control-specific binding” value in [3] is 88%. In addition, the “DAT, percent of control-specific binding” value in test [4] came out at 5%. The “MT1, percent of control-specific binding” value in test [7] was found to be 86%. In addition, the “α-2A, percent” value in test [9] was 88%. In addition, in test [10], the “NET, percent of control-specific binding” value was 13%. Moreover, in [11], the “HT1A, percent” value is 96%.

`CC(C(F)c1ccc2c(c1)OCO2)N1CCCC1` (stereo not drawn) [D(I) as diast. (v)] yielded an EC50 in [12] of over 1000 µM.

`C[C@@H]([C@H](F)c1ccc2c(c1)OCO2)N(C)Cc1ccccc1` [D(III) as diast. (vii)] registered an EC50 in [12] of 156 µM. The Ki in test [8] (5-HT1A, Ki) was determined as 11.3 µM.

With `CNC(C)Cc1ccc2c(c1)OCO2` (stereo not drawn) [MDMA], the concentration giving a half-maximal response (EC50) in test [12] (setting [13]) was over 1000 µM. Moreover, the “HT2B, percent” value in test [1] came out at 85%. In addition, the “SERT, percent” value in test [2] stood at 46%. Further, the “HT7, percent of control-specific binding” value in [3] is on record as 58%. Besides, the “DAT, percent of control-specific binding” value in test [4] was 28%. The “HT2C, percent” value in test [6] was determined as 96%. Further, the “MT1, percent of control-specific binding” value in test [7] came out at 1%. Moreover, in [9], the “α-2A, percent” value is reported as 27%. For the same molecule, in [10], the “NET, percent of control-specific binding” value turned out to be 3%. Besides, the “HT1A, percent” value in test [11] was determined as 68%.

In the case of `CCOc1c(OC)cc(CCN)cc1OC` [escaline], the “HT2B, percent” value in [1] was determined as 81%. Further, the “SERT, percent” value in test [2] was 0%. Besides, the “HT7, percent of control-specific binding” value in [3] stood at 16%. For the same molecule, the “DAT, percent of control-specific binding” value in test [4] is reported as 0%. Further, the “HT2C, percent” value in test [6] is listed as 95%. Also, the “MT1, percent of control-specific binding” value in test [7] came out at 0%. Besides, the inhibition constant Ki in test [8] (read-out: 5-HT1A, Ki) stood at 12.4 µM. For the same molecule, in test [9], the “α-2A, percent” value is 45%. In test [10], the “NET, percent of control-specific binding” value is recorded as 6%. Also, the “HT1A, percent” value in test [11] is 44%.

Consider `COc1cc(CCN)cc(OC)c1OC` [mescaline, 3,4,5 trimethoxyphenethylamine], for which the concentration for a half-maximal effect (EC50) in test [12] was over 1000 µM. Moreover, the inhibition at 10 µM in test [1] is 80%; in [2] it was -6%; in test [3] it was 38%; in [4] it was -1%; in test [6], 95%; in [7] it was 6%. The inhibition at 10 µM in test [9] was 57%; in test [10], -9%; in test [11], 65%. This molecule registered a Ki in test [8] (5-HT1A, Ki) of 8.5 µM.

As for `CCCOc1c(OC)cc(CCN)cc1OC` [proscaline], the inhibition at 10 µM in test [1] is 85%; in test [2], 23%; in test [3] it was 5%; in test [4], -2%; in test [6] it was 97%; in test [7], 3%. The inhibition at 10 µM in test [9] was 40%; in test [10] it was -9%; in test [11], 71%. For the same molecule, the Ki in test [5] came to 82 µM; in test [8] (5-HT1A, Ki), 9.4 µM.

Turning to `CN(C)CCc1c[nH]c2cccc(O)c12` [psilocin], the EC50 in test [12] came to 0.957 µM.

What is called Ki is the equilibrium dissociation constant of an inhibitor or competing ligand from its target. For orientation: EC50 means the midpoint of the concentration-response curve.
